In PubChem BioAssay (NCI):
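48-hour exposure; five concentrations; linearly interpolated endpoints. TGI: concentration producing complete growth inhibition.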

How the values were obtained:
Assay in all cases: NCI anticancer screen, dose series, 48 h
786-0 renal = test system: 786-0 renal
A498 renal = test system: A498 renal
A549 NSCLC = test system: A549 NSCLC
ACHN renal = test system: ACHN renal
BT-549 breast = test system: BT-549 breast
CAKI-1 renal = test system: CAKI-1 renal
CCRF-CEM leukemia = test system: CCRF-CEM leukemia
COLO 205 colon = test system: COLO 205 colon
DU-145 prostate = test system: DU-145 prostate
EKVX NSCLC = test system: EKVX NSCLC
HCT-116 colon = test system: HCT-116 colon
HCT-15 colon = test system: HCT-15 colon
HL-60(TB) leukemia = test system: HL-60(TB) leukemia
HOP-62 NSCLC = test system: HOP-62 NSCLC
HOP-92 NSCLC = test system: HOP-92 NSCLC
HS 578T breast = test system: HS 578T breast
HT29 colon = test system: HT29 colon
IGROV1 ovarian = test system: IGROV1 ovarian
K-562 leukemia = test system: K-562 leukemia
KM12 colon = test system: KM12 colon
LOX IMVI melanoma = test system: LOX IMVI melanoma
M14 melanoma = test system: M14 melanoma
MALME-3M melanoma = test system: MALME-3M melanoma
MCF7 breast = test system: MCF7 breast
MDA-MB-231 breast = test system: MDA-MB-231 breast
MDA-MB-435 = test system: MDA-MB-435
MDA-N = test system: MDA-N
MOLT-4 leukemia = test system: MOLT-4 leukemia
NCI-H226 lung = test system: NCI-H226 lung
NCI-H23 lung = test system: NCI-H23 lung
NCI-H460 lung = test system: NCI-H460 lung
NCI-H522 lung = test system: NCI-H522 lung
NCI/ADR-RES ovarian = test system: NCI/ADR-RES ovarian
OVCAR-3 ovarian = test system: OVCAR-3 ovarian
OVCAR-4 ovarian = test system: OVCAR-4 ovarian
OVCAR-5 ovarian = test system: OVCAR-5 ovarian
OVCAR-8 ovarian = test system: OVCAR-8 ovarian
PC-3 prostate = test system: PC-3 prostate
RPMI-8226 leukemia = test system: RPMI-8226 leukemia
RXF 393 renal = test system: RXF 393 renal
SF-268 CNS = test system: SF-268 CNS
SF-295 CNS = test system: SF-295 CNS
SF-539 CNS = test system: SF-539 CNS
SK-MEL-2 melanoma = test system: SK-MEL-2 melanoma
SK-MEL-28 melanoma = test system: SK-MEL-28 melanoma
SK-MEL-5 melanoma = test system: SK-MEL-5 melanoma
SK-OV-3 ovarian = test system: SK-OV-3 ovarian
SN12C renal = test system: SN12C renal
SNB-19 CNS = test system: SNB-19 CNS
SNB-75 CNS = test system: SNB-75 CNS
SR leukemia = test system: SR leukemia
SW-620 colon = test system: SW-620 colon
T-47D breast = test system: T-47D breast
TK-10 renal = test system: TK-10 renal
U251 CNS = test system: U251 CNS
UACC-257 melanoma = test system: UACC-257 melanoma
UACC-62 melanoma = test system: UACC-62 melanoma
UO-31 renal = test system: UO-31 renal
HCC-2998 colon = test system: HCC-2998 colon

In the case of NS(=O)(=O)c1cc(Br)c(N=Nc2ccc(O)c3ncccc23)c(Br)c1, the TGI (786-0 renal) is reported as greater than 100 µM, the TGI (A498 renal) is reported as 67.9 µM and the TGI (A549 NSCLC) is reported as 60.7 µM. The TGI (ACHN renal) was 43.9 µM, the TGI (BT-549 breast) was greater than 100 µM and the TGI (CAKI-1 renal) was greater than 100 µM. For the same compound, the TGI (CCRF-CEM leukemia) was 6.74 µM, the TGI (COLO 205 colon) was greater than 100 µM and the TGI (DU-145 prostate) was greater than 100 µM. It also gave a TGI (EKVX NSCLC) greater than 100 µM, a TGI (HCT-116 colon) greater than 100 µM and a TGI (HCT-15 colon) greater than 100 µM. For the same compound, the TGI (HL-60(TB) leukemia) was 29.4 µM, the TGI (HOP-62 NSCLC) was greater than 100 µM and the TGI (HOP-92 NSCLC) was greater than 100 µM. For the same compound, the TGI (HS 578T breast) was 78.5 µM, the TGI (HT29 colon) was greater than 100 µM and the TGI (IGROV1 ovarian) was greater than 100 µM. The TGI (K-562 leukemia) was greater than 100 µM, the TGI (KM12 colon) was greater than 100 µM and the TGI (LOX IMVI melanoma) was greater than 100 µM. The TGI (M14 melanoma) was 76.8 µM, the TGI (MALME-3M melanoma) was 79.6 µM and the TGI (MCF7 breast) was 38.5 µM. For the same compound, the TGI (MDA-MB-231 breast) was greater than 100 µM, the TGI (MDA-MB-435) was greater than 100 µM and the TGI (MDA-N) was greater than 100 µM. It also gave a TGI (MOLT-4 leukemia) greater than 100 µM, a TGI (NCI-H226 lung) greater than 100 µM and a TGI (NCI-H23 lung) greater than 100 µM. The TGI (NCI-H460 lung) was greater than 100 µM, the TGI (NCI-H522 lung) was greater than 100 µM and the TGI (NCI/ADR-RES ovarian) was 65.5 µM. The TGI (OVCAR-3 ovarian) was greater than 100 µM, the TGI (OVCAR-4 ovarian) was greater than 100 µM and the TGI (OVCAR-5 ovarian) was greater than 100 µM. It also gave a TGI (OVCAR-8 ovarian) greater than 100 µM, a TGI (PC-3 prostate) greater than 100 µM and a TGI (RPMI-8226 leukemia) greater than 100 µM. For the same compound, the TGI (RXF 393 renal) was greater than 100 µM, the TGI (SF-268 CNS) was greater than 100 µM and the TGI (SF-295 CNS) was greater than 100 µM. It also gave a TGI (SF-539 CNS) greater than 100 µM, a TGI (SK-MEL-2 melanoma) greater than 100 µM and a TGI (SK-MEL-28 melanoma) greater than 100 µM. For the same compound, the TGI (SK-MEL-5 melanoma) was greater than 100 µM, the TGI (SK-OV-3 ovarian) was greater than 100 µM and the TGI (SN12C renal) was greater than 100 µM. It also gave a TGI (SNB-19 CNS) greater than 100 µM, a TGI (SNB-75 CNS) of 73.7 µM and a TGI (SR leukemia) greater than 100 µM. The TGI (SW-620 colon) was greater than 100 µM, the TGI (T-47D breast) was 98.8 µM and the TGI (TK-10 renal) was greater than 100 µM. For the same compound, the TGI (U251 CNS) was greater than 100 µM, the TGI (UACC-257 melanoma) was 67.3 µM and the TGI (UACC-62 melanoma) was 68.8 µM. For the same compound, the TGI (UO-31 renal) was 89.6 µM.
CCNC(=O)Cc1nc2c(N)ncnc2n1C1OC(CO)C(O)C1O (stereo not drawn) gave a TGI (786-0 renal) greater than 100 µM, a TGI (A498 renal) greater than 100 µM and a TGI (A549 NSCLC) greater than 100 µM. The TGI (ACHN renal) was greater than 100 µM, the TGI (BT-549 breast) was greater than 100 µM and the TGI (CAKI-1 renal) was greater than 100 µM. The TGI (COLO 205 colon) was greater than 100 µM, the TGI (DU-145 prostate) was greater than 100 µM and the TGI (EKVX NSCLC) was greater than 100 µM. It also gave a TGI (HCC-2998 colon) greater than 100 µM, a TGI (HCT-116 colon) greater than 100 µM and a TGI (HCT-15 colon) greater than 100 µM. The TGI (HL-60(TB) leukemia) was greater than 100 µM, the TGI (HOP-62 NSCLC) was greater than 100 µM and the TGI (HOP-92 NSCLC) was greater than 100 µM. It also gave a TGI (HS 578T breast) greater than 100 µM, a TGI (HT29 colon) greater than 100 µM and a TGI (IGROV1 ovarian) greater than 100 µM. The TGI (K-562 leukemia) was greater than 100 µM, the TGI (KM12 colon) was greater than 100 µM and the TGI (LOX IMVI melanoma) was greater than 100 µM. For the same compound, the TGI (M14 melanoma) was greater than 100 µM, the TGI (MALME-3M melanoma) was greater than 100 µM and the TGI (MCF7 breast) was 86.5 µM. The TGI (MDA-MB-231 breast) was greater than 100 µM, the TGI (MDA-MB-435) was greater than 100 µM and the TGI (MDA-N) was greater than 100 µM. The TGI (MOLT-4 leukemia) was greater than 100 µM, the TGI (NCI-H226 lung) was greater than 100 µM and the TGI (NCI-H23 lung) was greater than 100 µM. The TGI (NCI-H460 lung) was greater than 100 µM, the TGI (NCI-H522 lung) was greater than 100 µM and the TGI (NCI/ADR-RES ovarian) was greater than 100 µM. The TGI (OVCAR-3 ovarian) was greater than 100 µM, the TGI (OVCAR-4 ovarian) was greater than 100 µM and the TGI (OVCAR-8 ovarian) was greater than 100 µM. It also gave a TGI (PC-3 prostate) greater than 100 µM, a TGI (RPMI-8226 leukemia) greater than 100 µM and a TGI (SF-268 CNS) greater than 100 µM. The TGI (SF-295 CNS) was greater than 100 µM, the TGI (SF-539 CNS) was greater than 100 µM and the TGI (SK-MEL-2 melanoma) was greater than 100 µM. The TGI (SK-MEL-28 melanoma) was greater than 100 µM, the TGI (SK-MEL-5 melanoma) was greater than 100 µM and the TGI (SK-OV-3 ovarian) was greater than 100 µM. The TGI (SN12C renal) was greater than 100 µM, the TGI (SNB-19 CNS) was greater than 100 µM and the TGI (SR leukemia) was greater than 100 µM. It also gave a TGI (SW-620 colon) greater than 100 µM, a TGI (T-47D breast) greater than 100 µM and a TGI (TK-10 renal) greater than 100 µM. For the same compound, the TGI (U251 CNS) was greater than 100 µM, the TGI (UACC-257 melanoma) was greater than 100 µM and the TGI (UACC-62 melanoma) was greater than 100 µM. The TGI (UO-31 renal) was greater than 100 µM.
